Experimental data as given in ChEMBL document CHEMBL1201862, “PubChem BioAssay data set” (2004).
Activity calls are given as the source filed them. For most assays here, no stated cut-off is given here; in the data, actives have a measured EC50 and inactives only a lower limit.

How the values were obtained:
[1] = target: Luciferin 4-monooxygenase (Photinus pyralis, UniProt P08659); assay: firefly luciferase enzyme inhibitors, dose response, biochemical, luminescence (AID 1891)
[2] = Luminescence Cell-Based Dose Confirmation HTS to Identify Inhibitors of Platelet Dense Granule Release. [Related pubchem assays: 1663 (Primary HTS), 1678 (Summary of Project)]; format: functional
[3] = target: T1, Replicative DNA helicase DnaB (Mycobacterium tuberculosis, UniProt P9WMR3); assay: DnaB intein splicing inhibitors, dose response, biochemical, cell-free fluorescence (AID 449749); format: functional
T1 sequence (P9WMR3 whole entry): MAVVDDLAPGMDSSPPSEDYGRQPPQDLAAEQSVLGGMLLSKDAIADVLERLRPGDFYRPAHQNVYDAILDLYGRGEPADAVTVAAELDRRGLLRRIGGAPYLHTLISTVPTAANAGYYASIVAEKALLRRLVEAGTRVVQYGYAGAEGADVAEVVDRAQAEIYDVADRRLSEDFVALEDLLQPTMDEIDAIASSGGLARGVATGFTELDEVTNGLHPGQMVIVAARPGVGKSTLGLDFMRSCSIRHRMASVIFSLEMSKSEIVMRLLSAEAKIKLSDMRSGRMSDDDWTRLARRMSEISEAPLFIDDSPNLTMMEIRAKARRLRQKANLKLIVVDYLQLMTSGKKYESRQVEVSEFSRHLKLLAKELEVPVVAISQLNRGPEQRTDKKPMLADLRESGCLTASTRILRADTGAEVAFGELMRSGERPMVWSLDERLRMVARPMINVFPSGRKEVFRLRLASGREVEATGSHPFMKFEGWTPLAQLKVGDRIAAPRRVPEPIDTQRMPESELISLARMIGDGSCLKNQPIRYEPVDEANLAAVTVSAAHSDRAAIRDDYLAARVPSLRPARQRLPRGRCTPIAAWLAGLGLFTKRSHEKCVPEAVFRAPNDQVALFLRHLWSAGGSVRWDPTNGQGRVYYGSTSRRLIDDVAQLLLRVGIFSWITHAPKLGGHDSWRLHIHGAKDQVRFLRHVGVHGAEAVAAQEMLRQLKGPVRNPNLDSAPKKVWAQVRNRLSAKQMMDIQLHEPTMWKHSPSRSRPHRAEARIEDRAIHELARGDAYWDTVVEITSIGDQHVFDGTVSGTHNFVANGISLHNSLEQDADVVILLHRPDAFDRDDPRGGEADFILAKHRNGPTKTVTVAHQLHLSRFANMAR

[4] = growth suppression of beta-catenin-knockout colon cells, dose response, cell-based, HCT116, human colon tumor (AID 1045); format: functional;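 further: HCT116 colon tumor cells with beta catenin knocked out; cells exposed to compound for 60 hours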
Protein RecA = target: T2, Protein RecA (Mycobacterium tuberculosis, UniProt P9WHJ3); assay: Fluorescence Cell-Free Homogeneous Dose Retest to Identify Inhibitors of RecA-Intein Splicing Activity. [Related pubchem assays (depositor defined):AID2097, AID2223, AID489010, AID492950]; format: functional
T2 sequence (P9WHJ3 whole entry): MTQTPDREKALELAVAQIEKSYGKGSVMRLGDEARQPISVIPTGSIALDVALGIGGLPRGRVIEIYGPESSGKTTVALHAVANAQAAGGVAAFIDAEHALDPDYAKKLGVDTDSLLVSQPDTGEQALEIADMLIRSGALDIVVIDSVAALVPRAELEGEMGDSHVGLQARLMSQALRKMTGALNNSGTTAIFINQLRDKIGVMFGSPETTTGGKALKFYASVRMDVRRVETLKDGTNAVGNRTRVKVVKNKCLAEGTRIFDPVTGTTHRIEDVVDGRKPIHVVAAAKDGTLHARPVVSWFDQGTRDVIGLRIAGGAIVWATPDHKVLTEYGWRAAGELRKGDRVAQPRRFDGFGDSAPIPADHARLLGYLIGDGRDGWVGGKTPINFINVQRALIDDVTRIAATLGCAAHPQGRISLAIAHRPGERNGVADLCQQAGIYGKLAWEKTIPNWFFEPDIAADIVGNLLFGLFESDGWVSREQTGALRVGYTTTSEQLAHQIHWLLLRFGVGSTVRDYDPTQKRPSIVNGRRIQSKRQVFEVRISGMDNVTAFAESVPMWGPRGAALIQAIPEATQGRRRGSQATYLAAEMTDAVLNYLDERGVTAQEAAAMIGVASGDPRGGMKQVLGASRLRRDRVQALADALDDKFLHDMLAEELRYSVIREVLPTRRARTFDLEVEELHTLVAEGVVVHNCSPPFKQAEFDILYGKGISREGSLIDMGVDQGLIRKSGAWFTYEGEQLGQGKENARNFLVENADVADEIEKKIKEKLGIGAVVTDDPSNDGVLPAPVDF

[5] = growth suppression of PTEN-null colon cells, dose response, cell-based, HCT116 PTEN knockout (AID 1047); format: functional;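 further: HCT116 colon tumor cells with PTEN knocked out; cells exposed to compound for 60 hours before readout; potency for loss of cell viability measured by luminescence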
[6] = target: T3, Heat shock factor protein 1 (Mus musculus, UniProt P38532); assay: inhibition of MG132-induced HSE-luciferase signal, confirmation, cell-based, NIH3T3, luminescence, dose retest (AID 2382); format: functional;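 further: NIH3T3 fibroblasts with HSF1-driven luciferase reporter stressed by proteasome inhibitor MG132; luminescence from HSF1-driven luciferase expression after 8 hours of MG132 stress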
T3 sequence (P38532 whole entry): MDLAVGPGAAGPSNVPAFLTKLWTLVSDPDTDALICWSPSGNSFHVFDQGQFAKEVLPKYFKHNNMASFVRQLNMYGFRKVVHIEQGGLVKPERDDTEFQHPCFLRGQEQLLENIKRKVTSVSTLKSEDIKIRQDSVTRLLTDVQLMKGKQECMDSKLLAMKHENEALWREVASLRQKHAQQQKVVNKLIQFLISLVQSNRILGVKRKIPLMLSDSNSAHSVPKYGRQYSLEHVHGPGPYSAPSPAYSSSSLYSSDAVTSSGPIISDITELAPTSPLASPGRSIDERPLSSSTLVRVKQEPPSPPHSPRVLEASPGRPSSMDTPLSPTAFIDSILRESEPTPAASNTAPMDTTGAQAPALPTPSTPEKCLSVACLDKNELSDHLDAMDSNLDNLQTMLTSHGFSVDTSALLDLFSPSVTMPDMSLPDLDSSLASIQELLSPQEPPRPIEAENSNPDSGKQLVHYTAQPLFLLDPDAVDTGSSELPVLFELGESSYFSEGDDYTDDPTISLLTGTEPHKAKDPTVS

[7] = Luminescence Cell-Based Dose Response HTS to Identify Activators of Luciferase Translation or Activity in H4 […] Cells. [Related pubchem assays: 1829 (Project Summary), 1814 (Primary HTS)]; format: functional
[8] = target: T4, Corticotropin-releasing factor receptor 2/Corticotropin-releasing factor-binding protein (Homo sapiens, UniProt P24387+Q13324); assay: activators of CRF receptor 2 with binding protein – uHTS hits, confirmation (AID 602473); format: functional; conditions: read-out: EC50_Mean
T4 sequence (Q13324 whole entry): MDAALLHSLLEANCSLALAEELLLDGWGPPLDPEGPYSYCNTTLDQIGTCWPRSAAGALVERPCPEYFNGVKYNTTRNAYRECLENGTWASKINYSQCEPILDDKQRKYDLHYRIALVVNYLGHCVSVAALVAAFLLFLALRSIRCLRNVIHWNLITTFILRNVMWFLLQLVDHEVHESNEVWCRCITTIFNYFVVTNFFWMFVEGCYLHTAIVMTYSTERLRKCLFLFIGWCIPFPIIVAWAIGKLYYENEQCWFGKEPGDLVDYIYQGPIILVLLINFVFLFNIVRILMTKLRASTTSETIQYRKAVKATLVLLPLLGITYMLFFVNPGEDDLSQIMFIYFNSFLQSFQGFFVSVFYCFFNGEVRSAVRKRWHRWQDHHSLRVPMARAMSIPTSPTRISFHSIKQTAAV
T4 sequence (P24387 whole entry): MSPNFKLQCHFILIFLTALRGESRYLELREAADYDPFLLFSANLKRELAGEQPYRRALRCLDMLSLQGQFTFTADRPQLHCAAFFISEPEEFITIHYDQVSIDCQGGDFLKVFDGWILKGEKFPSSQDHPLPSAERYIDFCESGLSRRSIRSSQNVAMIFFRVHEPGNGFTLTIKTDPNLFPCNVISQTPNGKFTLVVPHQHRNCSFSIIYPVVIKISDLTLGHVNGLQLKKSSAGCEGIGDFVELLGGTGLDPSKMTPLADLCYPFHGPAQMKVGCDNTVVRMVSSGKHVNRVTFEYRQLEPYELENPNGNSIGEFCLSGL

[9] = target: T4, Corticotropin-releasing factor receptor 2/Corticotropin-releasing factor-binding protein; assay: Dose Response confirmation of uHTS hits for small molecule antagonists of the CRF-binding protein and CRF-R2 receptor complex.; format: functional; conditions: read-out: IC50_Mean
[10] = test system: Streptococcus sp. 'group A'; assay: growth inhibition of control SK(-) GAS strain, dose response, counter-screen for streptokinase expression inhibitor project, luminescence, kanamycin, BacTiterGlo, confirmation (AID 1900); format: functional, organism-based
Streptococcus = assay: Group A Streptococcus viability loss, dose response, counter-screen for streptokinase expression inhibitor project, luminescence, BacTiterGlo (AID 1915); format: functional, organism-based;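 further: potency for reduction of bacterial viability or growth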
[11] = inhibitors of firefly luciferase expression or activity, dose response, H4 neuroglioma cells, luminescence (AID 1990); format: functional, cell-based
[12] = inhibitors of SNCA 5'UTR-driven reporter translation, confirmation, H4 neuroglioma cells, luminescence (AID 1988); format: functional, cell-based
[13] = Luminescence Cell-Based Dose Response HTS to Identify Inhibitors of 5'UTR Stem-Loop Driven Prion Protein mRNA Translation in H4 Neuroglioblastoma Cells. [Related pubchem assays: 1827 (Project Summary), 1813 (Primary HTS)]; format: functional

Chain of Luciferin 4-monooxygenase (P08659 whole entry): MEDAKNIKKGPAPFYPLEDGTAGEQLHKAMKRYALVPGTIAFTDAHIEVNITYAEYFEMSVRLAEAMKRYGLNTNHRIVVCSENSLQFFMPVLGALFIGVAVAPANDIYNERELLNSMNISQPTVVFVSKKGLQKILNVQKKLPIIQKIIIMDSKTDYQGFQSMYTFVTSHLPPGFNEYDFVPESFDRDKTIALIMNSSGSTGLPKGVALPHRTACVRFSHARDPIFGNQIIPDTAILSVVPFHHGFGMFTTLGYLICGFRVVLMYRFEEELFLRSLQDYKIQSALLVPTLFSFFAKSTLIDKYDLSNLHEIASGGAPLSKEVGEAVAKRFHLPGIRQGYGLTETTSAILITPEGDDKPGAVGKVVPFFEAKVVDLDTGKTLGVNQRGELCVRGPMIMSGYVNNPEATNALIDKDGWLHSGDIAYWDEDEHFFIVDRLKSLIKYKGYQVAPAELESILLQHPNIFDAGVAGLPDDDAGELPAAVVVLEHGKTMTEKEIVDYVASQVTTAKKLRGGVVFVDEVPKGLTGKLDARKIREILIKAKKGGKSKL

In the case of Cn1ccnc1SCC(=O)Nc1ccc2c(c1)OC(F)(F)O2, the EC50 [1] was > 112 µM (not active) and the EC50 [2] was > 112 µM (not active).
For CC1=C(C)/C(=N/OC(=O)c2cccc([N+](=O)[O-])c2)C=CC1=O, the AC50 [3] was > 380 µM (inactive), the EC50 [4] was 9.24 µM (active) and the EC50 (Protein RecA) was 0.418 µM (active). For the same molecule, the EC50 [5] was 9.44 µM (active).
For CCOC(=O)Cc1ccc2sc(-c3ccccc3)nc2c1, the EC50 [1] was 1.54 µM (active) and the EC50 [2] was 2.68 µM (active).
In the case of CCCN(Cc1ccccc1)C(=S)NC(=O)c1ccccc1[N+](=O)[O-], the EC50 [6] was > 195 µM (not active).
For O=S(=O)(c1ccccc1)N1CN2CCN(C2)C1, the EC50 [6] was > 195 µM (not active).
In the case of CC(C)OCCCNCC(O)c1ccccc1 (stereo unspecified), the EC50 [1] was > 112 µM (not active) and the EC50 [2] was > 112 µM (not active).
For Cc1c2cnn(CC(=O)NC3CCCC3)c(=O)c2c(C)n1Cc1ccccc1, the EC50 [7] was 51.2 µM (active), the EC50 [8] was > 53 µM (inactive) and the IC50 [9] was > 47.1 µM (inactive).
In the case of N#C/C(=C(/O)Cc1cccc2ccccc12)c1nc2ccccc2s1, the EC50 [10] was 2.91 µM (active), the EC50 (Streptococcus) was 3.17 µM (active) and the EC50 [8] was 3.14 µM (active). The IC50 [9] was 2.49 µM (active).
For O=[N+]([O-])c1ccc(N2CCCC(C(F)(F)F)C2)c2ccncc12 (stereo unspecified), the AC50 [3] was > 380 µM (inactive), the EC50 [11] was > 120 µM (not active) and the EC50 [12] was > 120 µM (not active). For the same molecule, the EC50 (Protein RecA) was 10.8 µM (active) and the EC50 [13] was > 120 µM (not active).
In the case of CCOc1ccc(C2C(C(=O)NC)=C(C)Nc3nc4ccccc4n32)cc1OC (stereo unspecified), the EC50 [1] was > 112 µM (not active) and the EC50 [2] was > 112 µM (not active).
In the case of COc1cc(OC)c2c(c1)OCC1CON(C)C21 (stereo unspecified), the EC50 [6] was > 195 µM (not active).
In the case of CC(C)(C)c1ccc(C(=O)NC(=S)N2CCCC2)cc1, the EC50 [6] was > 195 µM (not active).
For O=C(CSc1ccccc1)Nc1cccc(NC(=O)c2ccco2)c1, the EC50 [6] was > 195 µM (not active).
For CC(=O)N1C(=O)C2(C(C#N)=C(N)Oc3c2c(C)nn3-c2ccccc2)c2ccccc21 (stereo unspecified), the AC50 [3] was 4.34 µM (active) and the EC50 (Protein RecA) was 2.28 µM (active).
